Patent US11434242B2, “Dopamine-b-hydroxylase inhibitors” (BIAL-PORTELA & Cª, S.A., priority 2017, dated 2022)

Target: T1, Dopamine beta hydroxylase (Homo sapiens, UniProt P09172)
T1 construct: 125 μl of plasma; tissue Instituto Português do Sangue Transplantação; host or cells: human plasma from healthy donors
T1 sequence (P09172 40-617 limits assumed): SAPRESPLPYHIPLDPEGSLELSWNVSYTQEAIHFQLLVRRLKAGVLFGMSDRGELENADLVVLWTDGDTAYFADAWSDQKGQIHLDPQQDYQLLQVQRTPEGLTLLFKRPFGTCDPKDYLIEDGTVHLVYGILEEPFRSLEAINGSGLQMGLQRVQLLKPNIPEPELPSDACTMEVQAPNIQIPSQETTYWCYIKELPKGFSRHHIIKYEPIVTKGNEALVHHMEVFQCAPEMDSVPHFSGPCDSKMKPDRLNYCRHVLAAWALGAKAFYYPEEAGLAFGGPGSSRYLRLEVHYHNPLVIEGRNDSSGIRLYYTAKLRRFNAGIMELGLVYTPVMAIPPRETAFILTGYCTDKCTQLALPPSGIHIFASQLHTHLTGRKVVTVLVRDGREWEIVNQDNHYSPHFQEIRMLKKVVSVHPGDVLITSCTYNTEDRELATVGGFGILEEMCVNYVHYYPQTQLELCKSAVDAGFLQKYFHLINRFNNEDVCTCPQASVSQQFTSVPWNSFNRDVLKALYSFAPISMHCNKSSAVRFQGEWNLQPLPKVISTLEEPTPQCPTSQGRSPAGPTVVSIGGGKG
Test: Dopamine beta hydroxylase activity in human plasma
Format: biochemical
Details: for Plasma (0.01 μM), activity in % of control: inhibitor 0.01 μM; for Plasma (0.1 μM), activity in % of control: inhibitor 0.1 μM
Description: Furthermore, the ability of a compound to inhibit DβH activity may be assessed in human plasma using the following assay. […]. Dopamine beta hydroxylase activity in human plasma was measured by the method of Nagatsu and Udenfriend (Nagatsu, T. and Udenfriend, S. “Photometric assay of dopamine-μ-hydroxylase activity in human blood.” Clin. Chem. 18(9) 980-983, 1972) with minor modifications. Catalase, N-ethylmaleimide, tyramine, disodium fumarate, pargyline, sodium acetate, ascorbic acid, copper sulfate and octopamine were obtained from Sigma Chemical Co., St. Louis, Mo. 63178. Human plasma samples were obtained from healthy donors (Instituto Português do Sangue Transplantação, Centro Sangue Transplantação, Porto, Portugal). From date of collection, plasma was stored at −80° C. until use. Test compounds were initially prepared in dimethyl sulfoxide at a concentration of 10 mM and diluted in dimethyl sulfoxide to the required concentrations. Test compounds were further diluted in ultrapure water to a concentration 20-fold to that of the final concentration to be tested. Final concentrations of test compounds were 10, 100 and 1000 nM. The various reagents used to make up the incubation buffer were premixed and consisted of the following components: sodium acetate buffer (1 M, pH 5.0, 18 ml), sodium fumarate (0.2 M, 4.5 ml), ascorbic acid (0.2 M, 4.5 ml, freshly prepared), pargyline (20 mM, freshly prepared, 4.5 ml), N-ethylmaleimide (0.2 M, 4.5 ml), catalase (10 000 U/ml, 9 ml), copper sulfate (20 μM, 4.5 ml) and 4.5 ultrapure water. The standard incubation mixture (total volume, 950 μl) contained: 50 μL of compound or vehicle (dimethyl sulfoxide 2%); 700 μL of incubation buffer; 125 μl of plasma (or saline for blank reaction or standard curve); 75 μl of saline. The reaction mixture was placed in water bath, shaking at 37° C. and pre-incubated for 10 minutes. Tyramine (0.5 M) was added and incubation proceeded for 45 minutes. The reaction contents were exposed to air. A sample of enzyme preparation (with 125 μl of plasma) that had been added perchloric acid 2 M at the end of the pre-incubation period was used as blank. A blank for each of the tested compounds was used. For octopamine standard curve, perchloric acid 2 M was replaced by increasing concentrations of octopamine prepared in perchloric acid 2 M (0.5, 1, 2.5, 5, 7.5, 10, 15, 20 μg/ml, final concentration). The incubation was stopped by adding 200 μl of 2 M molar perchloric acid, and the mixture was centrifuged at 9000 g for 5 min. The supernatant fluid (800 μL) was transferred to a column (SPE cartridge ISOLUTE SCX-3, 100 mg) and centrifuged at 150 g for 2 min. The column was washed two more times with 0.5 ml of ultrapure water by centrifuging at 150 g for 2 min. The adsorbed octopamine was eluted twice with 0.3 ml of 4 M ammonium hydroxide by centrifuging at 150 g for 2 min. Octopamine in the eluate was then converted to p-hydroxybenzaldehyde by adding 200 μl of sodium periodate (2%) and incubating for 6 min. Excess periodate was than reduced by adding 200 μl of sodium metabisulfite (10%). Absorbance was measured at […] in a 96-well plate by use of a SpectraMAX plus 384 (Molecular Devices) with software SOFTmax® PRO Software 5.3 spectrophotometer. Absorbance was linear with octopamine concentration from 0.5 to 20 μg/ml. Dopamine beta hydroxylase activity is determined as nmol of octopamine formed/ml of plasma/hour and effect of compounds is presented as % control.
Results are reported in the table below as activity in % of control at the inhibitor concentration tested.

Plasma (0.01 μM), activity in % of control	Plasma (0.1 μM), activity in % of control	Plasma (1 μM), activity in % of control (inhibitor 1 μM)	Compound
46.6 % of control	5.0 % of control	–	O=C(Cc1[nH]c(=S)n2c1C[C@@H](c1c(F)ccc(Br)c1F)C2)N1CCC2(CCOC2)C1 (stereo partly drawn) [Example 138, 2-((S)-6-(3-bromo-2,6-difluorophenyl)-3-thioxo-2,5,6,7-tetrahydro-3H-pyrrolo[1,2-c]imidazol-1-yl)-1-(2-oxa-7-azaspiro[4.4]nonan-7-yl)ethan-1-one]
107.8 % of control	93 % of control	–	Cn1c(CC(=O)NC2CCCC2)c2n(c1=S)C[C@@H](c1cc(Cl)ccc1F)C2 [Example 245, (R)-2-(6-(5-chloro-2-fluorophenyl)-2-methyl-3-thioxo-2,5,6,7-tetrahydro-3H-pyrrolo[1,2-c]imidazol-1-yl)-N-cyclopentylacetamide]
60.0 % of control	16.2 % of control	–	O=C(Cc1[nH]c(=S)n2c1[C@@H]1C[C@]1(c1c(F)ccc(Cl)c1F)C2)NCCn1cccn1 [Example 142, N-(2-(1H-pyrazol-1-yl)ethyl)-2-((5aS,6aR)-5a-(3-chloro-2,6-difluorophenyl)-3-thioxo-2,3,5,5a,6,6a-hexahydrocyclopropa[3,4]pyrrolo[1,2-c]imidazol-1-yl)acetamide]
89.5 % of control	38.6 % of control	–	O=C(Cc1[nH]c(=S)n2c1[C@@H]1C[C@]1(c1cc(Br)ccc1F)C2)NC1CC1 [Example 154, 2-((5aS,6aR)-5a-(5-bromo-2-fluorophenyl)-3-thioxo-2,3,5,5a,6,6a-hexahydrocyclopropa[3,4]pyrrolo[1,2-c]imidazol-1-yl)-N-cyclopropylacetamide]
84.8 % of control	41.9 % of control	–	CC(C)NC(=O)Cc1c2n(c(=S)n1C)C[C@@]1(c3cc(Br)ccc3F)C[C@@H]21 [Example 284, 2-((5aS,6aR)-5a-(5-bromo-2-fluorophenyl)-2-methyl-3-thioxo-2,3,5,5a,6,6a-hexahydrocyclopropa[3,4]pyrrolo[1,2-c]imidazol-1-yl)-N-isopropylacetamide]
82.9 % of control	62.4 % of control	–	F.Fc1ccc(Cl)cc1[C@]12C[C@H]1c1c(CCN3CCCCC3)[nH]c(=S)n1C2 [Example 194, (5aS,6aR)-5a-(5-chloro-2-fluorophenyl)-1-(2-(piperidin-1-yl)ethyl)-5,5a,6,6a-tetrahydrocyclopropa[3,4]pyrrolo[1,2-c]imidazole-3(2H)-thione Hydrofluoride]
–	78.8 % of control	15.9 % of control	O=C(Cc1[nH]c(=S)n2c1C[C@H](c1c(F)c(F)cc(F)c1F)C2)N1CCC(CO)CC1 [Example 83, (R)-1-(4-(hydroxymethyl)piperidin-1-yl)-2-(6-(2,3,5,6-tetrafluorophenyl)-3-thioxo-2,5,6,7-tetrahydro-3H-pyrrolo[1,2-c]imidazol-1-yl)ethan-1-one]
87.4 % of control	23.2 % of control	–	F.Fc1ccc(Cl)cc1[C@]12C[C@H]1c1c(CCNCc3ccccc3)[nH]c(=S)n1C2 [Example 189, (5aS,6aR)-1-(2-(benzylamino)ethyl)-5a-(5-chloro-2-fluorophenyl)-5,5a,6,6a-tetrahydrocyclopropa[3,4]pyrrolo[1,2-c]imidazole-3(2H)-thione hydrofluoride]

More lines, now with the values behind:

Compound	Plasma (0.01 μM), activity in % of control	Plasma (0.1 μM), activity in % of control	Plasma (1 μM), activity in % of control (inhibitor 1 μM)
Cn1c(C2(C(=O)N[C@@H]3CCOC3)CC2)c2n(c1=S)C[C@H](c1c(F)ccc(Br)c1F)C2 [Example 234, 1-((S)-6-(3-bromo-2,6-difluorophenyl)-2-methyl-3-thioxo-2,5,6,7-tetrahydro-3H-pyrrolo[1,2-c]imidazol-1-yl)-N—((R)-tetrahydrofuran-3-yl)cyclopropane-1-carboxamide]	43.4 % of control	12.2 % of control	–
CN(C(=O)Cc1c2n(c(=S)n1C)C[C@H](c1c(F)ccc(Br)c1F)C2)C1COC1 [Example 454, (S)-2-(6-(3-bromo-2,6-difluorophenyl)-2-methyl-3-thioxo-2,5,6,7-tetrahydro-3H-pyrrolo[1,2-c]imidazol-1-yl)-N-methyl-N-(oxetan-3-yl)acetamide]	56.8 % of control	8.1 % of control	–
Cn1c(CC(=O)NC2CCOCC2)c2n(c1=S)C[C@H](c1c(F)ccc(F)c1F)C2 [Example 416, (S)-2-(2-methyl-3-thioxo-6-(2,3,6-trifluorophenyl)-2,5,6,7-tetrahydro-3H-pyrrolo[1,2-c]imidazol-1-yl)-N-(tetrahydro-2H-pyran-4-yl)acetamide]	75.3 % of control	25.4 % of control	–
O=C(Cc1[nH]c(=S)n2c1C[C@H](c1c(F)ccc(Br)c1F)C2)NCc1ccccn1 [Example 139, (R)-2-(6-(3-bromo-2,6-difluorophenyl)-3-thioxo-2,5,6,7-tetrahydro-3H-pyrrolo[1,2-c]imidazol-1-yl)-N-(pyridin-2-ylmethyl)acetamide]	77.8 % of control	20.8 % of control	–
Cn1c(CC(=O)N2CC[C@@H](C#N)C2)c2n(c1=S)C[C@@H](c1c(F)ccc(F)c1F)C2 [Example 390, (R)-1-(2-((R)-2-methyl-3-thioxo-6-(2,3,6-trifluorophenyl)-2,5,6,7-tetrahydro-3H-pyrrolo[1,2-c]imidazol-1-yl)acetyl)pyrrolidine-3-carbonitrile]	75.0 % of control	52.0 % of control	–
CN(C(=O)Cc1c2n(c(=S)n1C)C[C@H](c1c(F)ccc(Cl)c1F)C2)C1COC1 [Example 429, (S)-2-(6-(3-chloro-2,6-difluorophenyl)-2-methyl-3-thioxo-2,5,6,7-tetrahydro-3H-pyrrolo[1,2-c]imidazol-1-yl)-N-methyl-N-(oxetan-3-yl)acetamide]	37.8 % of control	5.8 % of control	–
Cn1c(CC(=O)NC2CCOCC2)c2n(c1=S)C[C@H](c1c(F)ccc(Cl)c1F)C2 [Example 367, (S)-2-(6-(3-chloro-2,6-difluorophenyl)-2-methyl-3-thioxo-2,5,6,7-tetrahydro-3H-pyrrolo[1,2-c]imidazol-1-yl)-N-(tetrahydro-2H-pyran-4-yl)acetamide]	45.4 % of control	4.3 % of control	–
